Data set [1] can be described thus: Measurement of serum level in rats by HPLC. The class given is in vivo, Sprague Dawley rats. The protocol: Serum concentrations of alizarin were determined with serum isolated from the blood of male and female German shepherd dogs (age: 8-9 months) taken at different time points (0.5 h, 1 h, 2 h, 4 h, 6 h, 8 h, 24 h) after oral intake of the indicated doses for 4 weeks. In addition, serum concentrations of alizarin (Compound-1) were determined in male and female Sprague Dawley rats (body weight: 200-250 g) treated for 1 month and/or three months by oral gavage of alizarin at a once daily dose of 100 mg/kg, 50 mg/kg, 25 mg/kg and 12.5 mg/kg. Serum proteins were removed by acetonitrile precipitation, and alizarin was extracted by chloroform before separation on an HPLC-C18 column (Poroshell 120 EC-C18, 3.0×50 mm, Agilent) with an HPLC system (Agilent 1100 Series) and detection at OD245 nm. For quantitative determination of Compound-7 and Compound-10F in rat and dog serum, serum proteins were also removed by acetonitrile precipitation before HPLC analysis as detailed above and detection at OD254 nm.

Data set [2] concerns angiotensin II AT2 receptor (AT2R, AGTR2). The data set can be described thus: AT2R protein aggregation assay in HEK cells, immunoblot. The note with it: 10 microM for 72 h. The class given is cell-based, human. The method, then: Proteins were also extracted from yeast cells and HEK cells expressing the indicated protein (i.e. HBsAg or AGTR2) as described above. Neuronal cell loss and hyperphosphorylated Tau in hippocampi of 15 months-old Tg2576 mice subjected to the CUMS protocol for 3 months was determined with crude homogenates of dissected hippocampi by direct binding assay with neuron-specific [^125I]-labeled anti-NeuN antibody (MAB377, clone A60, EMD Millipore, Merck KGaA, Darmstadt, Germany) and [^125I]-labeled AT8 antibody similarly as described (AbdAlla et al., J. Biol. Chem. 284, 6554-6565 (2009)).
In the second non-Abeta-based protein aggregation assay, different plant extracts were tested in a mammalian cell system, which analyzed the protein aggregation of the angiotensin II AT2 receptor (AT2R, AGTR2) protein in human embryonic kidney (HEK) cells. The system has physiological relevance because this cellular system is capable to reproduce AT2R protein aggregation, which also occurs in brains of AD patients and AD animal models (AbdAlla et al., J. Biol. Chem. 284, 6554-6565 (2009); AbdAlla et al., J. Biol. Chem. 284, 6566-6574 (2009)). The AT2 receptor in human embryonic kidney (HEK) cells forms stable dimers/oligomers under pro-oxidant conditions, which are resistant to urea-containing reducing SDS-PAGE (FIG. 2A, and AbdAlla et al., J. Biol. Chem. 284, 6566-6574 (2009)). […]

The target in the next data set is T1, Tomm6 (Mus musculus, UniProt Q9CQN3).
T1 construct: hippocampi were isolated from 5-10 aged Tg2576 mice, pulverized under liquid nitrogen and solubilized; from tissue; host or cells: hippocampus of Tg2576 mice
T1 sequence (Q9CQN3 1-74): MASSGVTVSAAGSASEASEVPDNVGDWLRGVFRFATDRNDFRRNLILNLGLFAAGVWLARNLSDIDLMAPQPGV
The data set can be described thus: Immunoblot detection of hippocampal Tomm6 protein in treated Tg2576 mice. The class given is in vivo. The note with it: aged Tg2576 mice treated for 6 months.

The structures appear in SMILES notation.

From patent US20210186947A1, “TOMM6-INTERACTING EXTRACTS AND COMPOUNDS FOR USE IN THE TREATMENT AND PROPHYLAXIS OF NERVOUS SYSTEM DISEASES, ATHEROSCLEROSIS, HEPATITIS B INFECTION AND HUMAN PAPILLOMA VIRUS (HPV) INFECTION” (ETH ZURICH, priority 2018, published 2021) come the findings set out here.

On to `O=C1c2ccccc2C(=O)c2c1ccc(O)c2O` [Compound-1, 1,2-dihydroxyanthraquinone], for which, in data set [1] (rats), the “oral bioavailability / serum concentrations after oral intake” value is “achieves therapeutic serum concentrations”. In addition, in data set [1] (rats vs dogs), the “oral doses required to achieve equivalent peak serum concentrations, higher in rats compared to dogs” value is on record as “approximately 10 fold”. The “aggregation of the AT2 receptor” value in data set [2] is “inhibited the aggregation of the AT2 receptor”. For the same compound, the “hippocampal protein content of Tomm6” value on Tomm6 is recorded as “substantially increased”.
